According to patent US20260008760A1, “DIPEPTIDYL PEPTIDASE 1 INHIBITORS AND USES THEREOF” (Insmed Incorporated, priority 2024, published 2026):

Columns and labels:
[1] = biological target: T1, DPP1 in HL-60 cells (Homo sapiens, UniProt P53634); assay: DPP1 Cell Single-Point Percent Inhibition Testing; assay type: cell-based; set-up: host or cells: HL-60 cells; conditions: final compound concentration 5 nM, n = 1
In short: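 HL-60 cells in unsupplemented RPMI preincubated 60 min at 37 °C with test article (5 nM final, 0.1% DMSO), then given cell-permeable H-Gly-Phe-AFC (100 μM final) for 30 min. Fluorescence at 400/505 nm; percent inhibition versus vehicle after subtracting cell-free background and 10 μM brensocatib non-specific signal.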

[2] = biological target: T1, DPP1 in HL-60 cells; assay: DPP1 Cell IC50 assay; assay type: cell-based; set-up: host or cells: HL-60 cells; conditions: 60 min pre-incubation, H-Gly-Phe-AFC substrate, average of n runs, read-out: Avg. IC50 (DPP1 Cell IC50 value ranges)
In short: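 Intracellular DPP1 activity read as AFC fluorescence (Ex/Em 400/505 nm) after 30 min with H-Gly-Phe-AFC (500 μM stock), following 60 min compound pre-incubation at 37° C with HL-60 cells at 5×10^5 live cells per mL in PBS. IC50 by 4-parameter fit against DMSO-only controls.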

[3] = biological target: human DPP1 enzyme (Homo sapiens, UniProt P53634); assay: Human DPP1 Enzyme Single-Point Percent Inhibition Testing (HL-60 lysate); assay type: biochemical; set-up: A crude lysate of HL-60 cells (ATCC; Manassas, VA) was used as a source of human DPP1 enzyme; host or cells: HL-60 cells (crude lysate); conditions: final compound concentration of 10 nM, 400 μM H-Gly-Arg-AMC, n = 1
Sequence of human DPP1 enzyme (P53634 25-463): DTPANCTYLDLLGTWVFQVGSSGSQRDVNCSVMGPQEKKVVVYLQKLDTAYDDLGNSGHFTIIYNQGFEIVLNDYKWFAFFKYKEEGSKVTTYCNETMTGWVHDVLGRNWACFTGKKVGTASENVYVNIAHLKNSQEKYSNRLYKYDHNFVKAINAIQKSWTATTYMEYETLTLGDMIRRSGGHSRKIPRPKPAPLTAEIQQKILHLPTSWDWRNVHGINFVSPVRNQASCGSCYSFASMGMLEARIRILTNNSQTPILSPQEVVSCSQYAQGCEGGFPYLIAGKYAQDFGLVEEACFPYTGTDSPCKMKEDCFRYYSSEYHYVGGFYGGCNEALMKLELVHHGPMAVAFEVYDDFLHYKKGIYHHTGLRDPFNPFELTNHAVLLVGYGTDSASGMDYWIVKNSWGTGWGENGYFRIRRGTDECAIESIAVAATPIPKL
In short: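 Enzyme source was HL-60 cell lysate in MES pH 6.0 buffer with NaCl and DTT, pre-incubated 10 min at 37° C with 10 nM compound (final, 1% DMSO). Cleavage of 400 μM H-Gly-Arg-AMC was followed at 350/450 nm over 90 min at 37° C, and percent inhibition was taken against vehicle wells.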

T1 sequence (P53634 25-463): as above

Row | inhibition at 0.005 µM [1] | IC50 [2] | inhibition at 0.01 µM [3] | SMILES
1 | ≤ 76.5% | > 2.5 nM | ≤ 40% | CN1CCCC2(C1)C(=O)N(C)c1ccc(-c3ccc(C[C@@H](C#N)NC(=O)[C@@H]4CNCCCO4)cc3)cc12 (stereo partly drawn) [Compound 18, (2S)—N-[(1S)-1-cyano-2-(4-{1,1′-dimethyl-2-oxospiro[indole-3,3′-piperidin]-5-yl}phenyl)ethyl]-1,4-oxazepane-2-carboxamide]
2 | ≤ 76.5% | > 2.5 nM | ≤ 40% | N#C[C@H](Cc1ccc(-c2cnc3c(n2)CCCC3)cc1)NC(=O)[C@@H]1CNCCCO1 [Compound A11, (2S)—N-[(1S)-1-cyano-2-[4-(5,6,7,8-tetrahydroquinoxalin-2-yl)phenyl]ethyl]-1,4-oxazepane-2-carboxamide]
